For assay [1], the target named is T1, RNase A (Bos taurus, UniProt P61823).
T1 sequence (P61823 27-150): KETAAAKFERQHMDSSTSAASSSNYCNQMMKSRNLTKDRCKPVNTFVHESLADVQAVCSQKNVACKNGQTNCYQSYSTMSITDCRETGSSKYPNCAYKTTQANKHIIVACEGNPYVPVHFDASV
Put plainly: RNase A activity, RNase Alert QC test Kit (Example 3). The class given is biochemical. As to conditions: RNase A 0.003 U/mL, 37° C., 60 minutes, compared to Comparative Example 2 without SDS. On the procedure: RNase Alert QC test Kit (Ambion) was used for measuring the activity of the RNase A. The RNase A was added to the solution containing RNaseAlert substrate with a final concentration of 0.003 U/mL. The SDS was added to the RNase A solution with a final concentration of 0.1% or 1.0% each to be set as Test Example 1 and Test Example 2. […] Test Examples 1 and 2 and Comparative Examples 1 and 2 were kept warm for 60 minutes at a temperature of 37° C. A fluorescent material (FAM) is bonded with a quencher in the RNaseAlert substrate. The fluorescent material emits when the fluorescent material is separated from the quencher using the RNase A. Excitation light and luminescence of the fluorescence was measured to be 490 nm and 520 nm respectively, using Chromo4 (Bio-rad).

Assay [2] concerns RNase A contained in plasma. Put plainly: Activity of RNase A contained in diluted bovine plasma, RNase Alert QC test Kit (Example 4). As to conditions: 37° C., 60 minutes. The class given is biochemical. On the procedure: In Example 4, bovine plasma was used as an organism derived sample. The bovine plasma was used after being diluted 10 times or 20 times in advance. Similarly to Example 3, RNase Alert QC test Kit (Ambion) was used for measuring the activity of the RNase A. RNaseAlert substrate and SDS were added to the 10 times diluted bovine plasma such that final concentrations of the SDS become 0.05%, 0.1%, 0.2%, 0.3%, 0.4%, and 0.5% respectively to be set as Test Examples 1 to 6. In addition, RNaseAlert substrate and SDS were added to the 20 times diluted bovine plasma such that final concentrations of the SDS become 0.05%, 0.1%, 0.2%, 0.3%, 0.4%, and 0.5% respectively to be set as Test Examples 7 to 12. In addition, 10 times diluted bovine plasma to which SDS is not added was set as Comparative Example 1 and 20 times diluted bovine plasma to which SDS is not added was set as Comparative Example 2. Test Examples 1 to 12 and Comparative Examples 1 and 2 were kept warm for 60 minutes at a temperature of 37° C. and the activity of the RNase A was measured during the time period using the same method as in Example 3.

The test system of assay [3] is Bifidobacterium bifidum. Kind of assay: Nucleic acid extraction from bacteria by heat treatment with SDS, followed by LAMP (Example 5). Conditions: HPβCD 5% (w/v), LAMP 63° C. On the procedure:
In Example 5, Bifidobacterium bifidum from which it is comparatively difficult to extract the nucleic acid was used as bacteria. The Bifidobacterium bifidum (NBRC number: 100015) was obtained from Biological Resource Center (NBRC) of National In statute of Technology and Evaluation (NITE). In addition, the nucleic acid amplification reaction of a genome of Bifidobacterium bifidum was performed using the LAMP method and an LAMP reaction reagent (Eiken Chemical Co., Ltd, Loopamp® DNA Amplification reagent Kit) was used as a sample for the nucleic acid amplification reaction.
A quenching probe shown in Table 3 was used for detecting an amplification nucleic acid chain. In Example 5, excitation light and luminescence of light derived from a fluorescent material FAM bonded with the quenching probe was measured to be 490 nm and 520 nm respectively, using Chromo4 (Bio-rad).
A cell suspension in which the Bifidobacterium bifidum is prepared to be 100 copies/ml. In Example 5, as Test Examples 3 to 5, SDS was added to the cell suspension at the time of heat treatment such that concentrations of SDS become 0.01%, 0.1%, and 1%, respectively (refer to Table 4). In addition, as Test Examples 1 and 2 and Comparative Example 1, cell suspensions to which SDS was not added was prepared (refer to Table 4). The heat treatment was performed for 3 minutes at a temperature of 90° C. for Test Examples 1 and 3 to 5 before starting the nucleic acid amplification reaction. In addition, sonication was performed for Test Example 2 before starting the nucleic acid amplification reaction. After the heating process or the sonication, a LAMP reaction reagent and a primer and quenching probe of Table 3 were added to Test Examples 1 to 5. Furthermore, hydroxyprophyl-β-cyclodextrin (Tokyo Chemical Industry Co., Ltd.) was added to Test Examples 1 to 5 such that a final concentration of the hydroxyprophyl-β-cyclodextrin becomes 5% (w/v). A sample for nucleic acid amplification reaction, a primer, a quenching probe, and HPβCD were added to Comparative Example 1 as well. […]

The subject of assay [4] is nucleic acid amplification reaction (genome of Bifidobacterium bifidum as template). Put plainly: LAMP reaction with SDS and HPβCD, bacterial genome as template (Example 6). It is filed as biochemical. The procedure: In Example 6, nucleic acid amplification reaction was performed using the LAMP method using a genome of Bifidobacterium bifidum as a template nucleic acid. In addition, a sample for nucleic acid amplification reaction, a primer, and a quenching probe used for the nucleic acid amplification reaction were the same as those in Example 5. HPβCD was prepared such that a final concentration of HPβCD in a nucleic acid amplification reaction solution becomes 2.5%. Furthermore, SDS was added thereto such that the SDS concentrations become 0%, 0.05%, 0.1%, 0.2%, 0.3%, 0.4%, 0.5%, and 1.0% to be set as Test Examples 1 to 8 respectively. In addition, HPβCD was prepared such that a final concentration of HPβCD in a nucleic acid amplification reaction solution becomes 5.0%. Furthermore, SDS was added thereto such that the SDS concentrations become 0%, 0.05%, 0.1%, 0.2%, 0.3%, 0.4%, 0.5%, and 1.0% to be set as Test Examples 9 to 16 respectively. In addition, nucleic acid amplification reaction solutions prepared such that the HPβCD concentration becomes 0% and the SDS concentrations become 0%, 0.01%, and 0.1% to be set as Comparative Examples 1 to 3.

Consider `CCCCCCCCCCCCOS(=O)(=O)[O-].[Na+]` [SDS, sodium dodecyl sulfate], for which the “activity of the RNase A” value in assay [1] (SDS 0.1% (Test Example 1)) and in assay [1] (SDS 1.0% (Test Example 2)) was “suppressed” in each case. Further, the “SDS concentration with which the activity of the RNase A was suppressed” value is on record as no less than 0.4% in assay [2] (bovine plasma diluted 10 times (Test Examples 5 and 6)); no less than 0.2% in assay [2] (bovine plasma diluted 20 times (Test Examples 9 to 12)). In addition, the Tt value in assay [3] (SDS 0.01% at heat treatment, 3 minutes at 90° C. (Test Example 3)) came to 17.5 min; in assay [3] (SDS 0.1% at heat treatment, 3 minutes at 90° C. (Test Example 4)), 14.2 min. Also, the “amplification of the nucleic acid” value in assay [3] (SDS 1% at heat treatment, 3 minutes at 90° C. (Test Example 5)) is recorded as “no amplification of the nucleic acid”; in assay [4] (HPβCD not added, SDS concentration 0.1%) it was “No amplification of the nucleic acid was confirmed”. Further, the “SDS concentration at which amplification of the nucleic acid was confirmed” value in assay [4] (HPβCD not added) is on record as no more than 0.01%.

Consider hydroxyprophyl-β-cyclodextrin [HPβCD], for which the “HPβCD concentration relative to the SDS concentration to suppress the inhibition of the LAMP reaction due to the SDS” value in assay [4] (in the nucleic acid amplification reaction solution) was no less than 8 times.

For the origin of these results see patent US20140322761A1, “METHOD OF PREPARING SAMPLE FOR NUCLEIC ACID AMPLIFICATION REACTION, NUCLEIC ACID AMPLIFICATION METHOD, AND REAGENT AND MICROCHIP FOR SOLID PHASE NUCLEIC ACID AMPLIFICATION REACTION” (Sony Corporation, priority 2013, published 2014).
